Assays:
VEGFA = assay: ELISA of VEGFA secreted into conditioned medium of CES; type: cell-based, human
Experimental: HCT116 CRC cells were grown in ultra-low attachment plate in 3dGROTM Spheroid Medium (Sigma-Aldrich, USA) for 7 days. Spheroids enriched with CSCs were considered as CSC enriched spheres (CESs) or commonly referred as tumorospheres. After 7 days, tumorospheres were subjected to different treatments for 24 h, as per experimental protocol. Media of tumorospheres of all the treatment groups were collected, centrifuged to remove the cell debris and suspended spheres, supernatants were collected and vacuum concentrated. These supernatants were referred as conditioned medium (CM) and were stored at - 20 °C until use. Concentration of the secreted VEGFA was measured using the ELISA kit according to the manufacturer's instruction ([…] BioSystems, India) in CM of CESs as well as in the media of transfected and non-transfected HCT116.

OCT4, NANOG and SOX2 = assay: Western blot of stemness factors in sorted CD44+/CD133+ cells; type: cell-based, human; conditions: 24 h, compared to 5FU treated group
From the text: CD44^+/CD133^+ cells were isolated using MACS LS column (Miltenyi Biotec, USA) after leveled with CD44 and CD133 antibody conjugated with microbeads (Miltenyi Biotec, USA) by following manufacture’s protocol and subjected to further analysis. Cells expressing both CD44 and CD133 were isolated using magnetic cell sorter (MACS) (Guerriero et al. [2017]).
Protein samples were extracted from treated and untreated cells and subjected to western blot analysis by standard protocol (Bhowmik et al. [2013]). Cells were incubated with Brefeldin A (10 µg/ml) for 4 h before harvesting to determine VEGFA expression. Briefly, cells were lysed with RIPA buffer [50 mmol/L Tris–HCl (pH 7.8), 150 mmol/L NaCl, 1% Triton X-100, 0.1% SDS, 0.5% sodium deoxycholate, and 1 mmol/L EDTA] containing complete protease inhibitor cocktail. Equal amount of protein was electrophoresed on SDS-PAGE and electro transferred onto polyvinylidene difluoride (PVDF) membranes using Bio-Rad mini gel apparatus. […] Signals were detected with the ECL system (Promega, USA) and images were captured in iBright™ CL1500 Imaging System.

[1] = tested on: CD44+/CD133+ cell population in HIF1α transfected HCT116 derived tumorospheres; assay: Flow cytometry of CD44+/CD133+ cells in CES from HIF1α transfected HCT116 cells; type: cell-based, human; conditions: transfected control 28.9%
Experimental: (§1) HCT116 cells were transiently transfected with HA-HIF1α-pcDNA3 plasmid (Addgene, USA, Plasmid #18949) by using lipofectamineTM 2000 (Thermo Fisher Scientific, USA) according to the manufacturer’s instructions. After 24 h of transfection, those cells were subjected to various experiments.
Percentages of CD44^+/CD133^+ cell population were determined within tumorospheres and HIF1α positive cells were determined within the CD44^+/CD133^+ cell population using a flow cytometer (BD LSRFortessa™ X-20) and analyzed by BD FACSDiva™ software.

[2] = parameters: method as in Tan et al. [2013]; Chagas et al. [2020]; Zhang et al. [2007]; conditions: ref Tan et al. [2013]; Chagas et al. [2020]; Zhang et al. [2007]; cited from earlier work
HIF1α, VEGFA = assay: Western blot and immunocytochemistry in HIF1α transfected HCT116 cells; type: cell-based, human
Experimental: as §1

SMILES | VEGFA secreted into CM of CES (VEGFA) | protein expression of OCT4, NANOG and SOX2 (OCT4, NANOG and SOX2) | CD44+/CD133+ cell population [1] | excretion [2] | metabolism [2] | tissue distribution [2] | HIF1α and VEGFA expression by immunocytochemistry (HIF1α, VEGFA)
O=c1[nH]cc(F)c(=O)[nH]1 [5FU, 5-Fluorouracil, reference compound] | stimulated |  |  |  |  |  | 
O=c1cc(-c2ccc(O)c(O)c2)oc2c([C@@H]3O[C@H](CO)[C@@H](O)[C@H](O)[C@H]3O)c(O)cc(O)c12 [Orientin] |  | downregulated | 16.4% | excreted primarily through urine | hepatic metabolism via CYP450 enzymes | widely distributed in different tissues | reduced
